Source: ChEMBL document CHEMBL3045874, “2,4-D based herbicidal ionic liquids” (Tetrahedron, 2012)

Legend:
Thlaspi arvense [1] = assay: Herbicidal activity against Thlaspi arvense assessed as weed control at 0.02 M measured after 30 days of treatment relative to control; type: functional
Thlaspi arvense [2] = assay: Herbicidal activity against Thlaspi arvense assessed as weed control at 0.02 M measured after 6 days of treatment relative to control; type: functional
[3] = Glass transition temperature of the compound; type: physicochemical
Chenopodium album [4] = assay: Herbicidal activity against Chenopodium album assessed as weed control at 0.02 M measured after 6 days of treatment relative to control; type: functional
[5] = Melting point of the compound; type: physicochemical
[6] = Decomposition temperature of 5 % of the compound; type: physicochemical
Chenopodium album [7] = assay: Herbicidal activity against Chenopodium album assessed as weed control at 0.01 M measured after 30 days of treatment relative to control; type: functional
Chenopodium album [8] = assay: Herbicidal activity against Chenopodium album assessed as weed control at 0.01 M measured after 6 days of treatment relative to control; type: functional
Capsella bursa-pastoris [9] = assay: Herbicidal activity against Capsella bursa-pastoris assessed as weed control at 0.02 M measured after 30 days of treatment relative to control; type: functional
Chenopodium album [10] = assay: Herbicidal activity against Chenopodium album assessed as weed control at 0.02 M measured after 30 days of treatment relative to control; type: functional
Capsella bursa-pastoris [11] = assay: Herbicidal activity against Capsella bursa-pastoris assessed as weed control at 0.01 M measured after 6 days of treatment relative to control; type: functional
Capsella bursa-pastoris [12] = assay: Herbicidal activity against Capsella bursa-pastoris assessed as weed control at 0.01 M measured after 30 days of treatment relative to control; type: functional
Thlaspi arvense [13] = assay: Herbicidal activity against Thlaspi arvense assessed as weed control at 0.01 M measured after 30 days of treatment relative to control; type: functional
Thlaspi arvense [14] = assay: Herbicidal activity against Thlaspi arvense assessed as weed control at 0.01 M measured after 6 days of treatment relative to control; type: functional
[15] = Cold crystallization temperature of the compound; type: physicochemical
Capsella bursa-pastoris [16] = assay: Herbicidal activity against Capsella bursa-pastoris assessed as weed control at 0.02 M measured after 6 days of treatment relative to control; type: functional
[17] = Decomposition temperature of the compound; type: physicochemical
Chenopodium album [18] = assay: Herbicidal activity against Chenopodium album assessed as weed control at 450 g/ha; type: functional
Centaurea cyanus = assay: Herbicidal activity against Centaurea cyanus assessed as weed control at 450 g/ha; type: functional
[19] = buffer

Compound `CCCCCCCCCC[N+](C)(C)CCCCCCCCCC.O=C([O-])COc1ccc(Cl)cc1Cl` [DIDECYLDIMETHYLAMMONIUM(2,4-DICHLOROPHENOXY)ACETATE] has an Activity (Thlaspi arvense [1]) of 100%, an Activity (Thlaspi arvense [2]) of 96% and a T [3] of -50 °C. For the same compound, the Activity (Chenopodium album [4]) was 98%, the Tm [5] was -3 °C and the T [6] was 208 °C. For the same compound, the Activity (Chenopodium album [7]) was 100%, the Activity (Chenopodium album [8]) was 89% and the Activity (Capsella bursa-pastoris [9]) was 100%. It also gave an Activity (Chenopodium album [10]) of 100%, an Activity (Capsella bursa-pastoris [11]) of 81% and an Activity (Capsella bursa-pastoris [12]) of 100%. For the same compound, the Activity (Thlaspi arvense [13]) was 100%, the Activity (Thlaspi arvense [14]) was 82% and the T [15] was -39 °C. The Activity (Capsella bursa-pastoris [16]) was 99% and the T [17] was 260 °C.

`CNC.O=C(O)COc1ccc(Cl)cc1Cl` [2,4-D-Dimethylammonium] showed an Activity (Chenopodium album [18]) of 60% and an Activity (Centaurea cyanus) of 20%.

For `CCCCCCCCCCCCCCCC[N+](C)(C)CCO.O=C([O-])COc1ccc(Cl)cc1Cl` [DODECYLDI(POLYOXYETHYLENE)METHYLAMMONIUM(2,4-DICHLOROPHENOXY)ACETATE], the T [3] was -54 °C, the T [6] was 219 °C and the T [17] was 285 °C.

In the case of `CCCC[N+]1(C)CCCC1.O=C([O-])COc1ccc(Cl)cc1Cl`, the solubility [19] is reported as “soluble”.

In the case of `C[N+]1(C)CCCCC1.O=C([O-])COc1ccc(Cl)cc1Cl`, the solubility [19] is reported as “soluble”.

In the case of `CCCCCCCCSCn1cc[n+](C)c1.O=C([O-])COc1ccc(Cl)cc1Cl`, the solubility [19] is reported as “soluble”.

Work on `CCCCCCCCCCCC[N+](C)(C)CCOc1ccccc1.O=C([O-])COc1ccc(Cl)cc1Cl` [DODECYLDIMETHYLPHENOXYETHYLAMMONIUM(2,4-DICHLOROPHENOXY)ACETATE] yielded a T [3] of -42 °C, a T [6] of 214 °C and a T [17] of 273 °C.

`CCCCCC(CC)OC(=O)COc1ccc(Cl)cc1Cl` [2,4-D-Ethylhexyl] showed an Activity (Chenopodium album [18]) of 100% and an Activity (Centaurea cyanus) of 80%.

In the case of `CCCOC[N+]1(C)CCCCC1.O=C([O-])COc1ccc(Cl)cc1Cl`, the solubility [19] is reported as “soluble”.

In the case of `CCCCCCCCCCCCCCCC[n+]1ccccc1.O=C([O-])COc1ccc(Cl)cc1Cl`, the solubility [19] is reported as “soluble”.

With `C=CC[N+](C)(C)CC=C.O=C([O-])COc1ccc(Cl)cc1Cl` [DIALLYLDIMETHYLAMMONIUM(2,4-DICHLOROPHENOXY)ACETATE] the T [3] was -42 °C, the T [6] was 187 °C and the solubility [19] was “soluble”. The T [17] was 196 °C.

In the case of `CCCCCCCCCCSC[N+](C)(C)CCO.O=C([O-])COc1ccc(Cl)cc1Cl`, the T [3] is reported as -35 °C, the T [6] is reported as 205 °C and the solubility [19] is reported as “soluble”. The T [17] was 219 °C.

In the case of `C[n+]1cccc(C(N)=O)c1.O=C([O-])COc1ccc(Cl)cc1Cl`, the solubility [19] is reported as “soluble”.

`C[N+](C)(CCO)COC1CCCCCCCCCCC1.O=C([O-])COc1ccc(Cl)cc1Cl` gave a Tm [5] of 108 °C, a T [6] of 242 °C and a T [17] of 280 °C.

`CCCCCCCCCCCCCCCC[N+](C)(C)C.O=C([O-])COc1ccc(Cl)cc1Cl` [HEXADECYLTRIMETHYLAMMONIUM(2,4-DICHLOROPHENOXY)ACETATE] showed a Tm [5] of -20 °C, a T [6] of 218 °C and a T [17] of 253 °C.

With `CCCCCCCCOCn1cc[n+](C)c1.O=C([O-])COc1ccc(Cl)cc1Cl` the solubility [19] was “soluble”.

Compound `O=C([O-])COc1ccc(Cl)cc1Cl.[Na+]` has an Activity (Thlaspi arvense [1]) of 100%, an Activity (Thlaspi arvense [2]) of 48% and an Activity (Chenopodium album [4]) of 60%. The Activity (Chenopodium album [7]) was 25%, the Activity (Chenopodium album [8]) was 55% and the Activity (Capsella bursa-pastoris [9]) was 100%. The Activity (Chenopodium album [10]) was 75%, the Activity (Capsella bursa-pastoris [11]) was 28% and the Activity (Capsella bursa-pastoris [12]) was 100%. The Activity (Thlaspi arvense [13]) was 100%, the Activity (Thlaspi arvense [14]) was 31% and the Activity (Capsella bursa-pastoris [16]) was 55%.

With `CCCC[N+]1(C)CCOCC1.O=C([O-])COc1ccc(Cl)cc1Cl` the solubility [19] was “soluble”.

For `CCCCCOC[N+]1(C)CCCCC1.O=C([O-])COc1ccc(Cl)cc1Cl`, the solubility [19] was “soluble”.
